Data from US20180094250A1, “Methods And Compositions For PCR” (Life Technologies Coroporation, priority 2007, published 2018).

Assays:
Format in all cases: biochemical
[1] = system: cDNA (human); test: PCR Residual Activity Assay with three primer sets, agarose gel; details: preincubation 25° C. for 60 min, 40 cycles
Experimental: Under these conditions, if hot-start techniques were not employed, primer dimers tend to form in the PCR reaction mix.
This example includes reactions which is referred to as PCR Residual Activity Assay that involved three set of primers respectively. The primer sets are commercially available from Applied Biosystems, Foster City, Calif. Specifically, Set 1 is Hs00378363_g1; Set 2, Hs00399572_m1 and Set 3, Hs00372859_m1.
The components are listed below:
50 Unit/ml DNA polymerase
and 0.8 ng/μl cDNA (human)
Due to the needs of the individual polymerases, 1× buffer and 1×MgCl2 are different as stated below:
The cycling conditions for ECA001 are listed below:
The cycling conditions for ECA001-Gold:
The cycling conditions for AmpliTaq:
The cycling conditions for AmpliTaq Gold:
Each reaction was run in duplication.

[2] = exonuclease to polymerase activity ratio after modification and re-activation; details: 5′-3′ exonuclease activity
Description: (See details in Example 5)
It is true that lysine is a common amino acid that can be found in many enzymes.

[3] = polymerase activity at room temperature relative to peak activity
Description: Pol B DNA polymerases enzymes have relative low polymerase activity at room temperature, while Taq DNA polymerase still retains >5% of its peak activity (FIG. 4).

Row | Substance | non-specific/primer-dimer products versus specific products [1] | exonuclease to polymerase activity ratio [2] | polymerase activity retained, of its peak activity [3] [%]
1 | AmpliTaq Gold: commercial hot-start modified Taq polymerase used as comparator | mostly the specific products | – | –
2 | AmpliTaq: AmpliTaq DNA polymerase | mostly non-specific/primer-dimer products | has been changed | –
3 | Taq DNA polymerase: Thermus aquaticus Pol I (Taq DNA polymerase) | – | – | > 5
